Experiments:
platelets [1] = test: Ex vivo platelet aggregation in dogs (Example XII H); details: dog, 10 μg/mL collagen as agonist
Description: More importantly, several peptides in FIG. 23 were administered to dogs (according to the method of Example VII) at doses capable of inhibiting ex vivo platelet aggregation by >95%.
The bleeding time indicated in the parentheses was measured at a five-fold higher concentration of peptide. […]

GP IIb/IIIa = GP IIb/IIIa (Homo sapiens, UniProt P05106+P08514); test: Inhibition of ligand binding to GP IIb/IIIa; details: fibrinogen versus fibronectin and vitronectin
Chain of GP IIb/IIIa (P08514 32-887 limits assumed): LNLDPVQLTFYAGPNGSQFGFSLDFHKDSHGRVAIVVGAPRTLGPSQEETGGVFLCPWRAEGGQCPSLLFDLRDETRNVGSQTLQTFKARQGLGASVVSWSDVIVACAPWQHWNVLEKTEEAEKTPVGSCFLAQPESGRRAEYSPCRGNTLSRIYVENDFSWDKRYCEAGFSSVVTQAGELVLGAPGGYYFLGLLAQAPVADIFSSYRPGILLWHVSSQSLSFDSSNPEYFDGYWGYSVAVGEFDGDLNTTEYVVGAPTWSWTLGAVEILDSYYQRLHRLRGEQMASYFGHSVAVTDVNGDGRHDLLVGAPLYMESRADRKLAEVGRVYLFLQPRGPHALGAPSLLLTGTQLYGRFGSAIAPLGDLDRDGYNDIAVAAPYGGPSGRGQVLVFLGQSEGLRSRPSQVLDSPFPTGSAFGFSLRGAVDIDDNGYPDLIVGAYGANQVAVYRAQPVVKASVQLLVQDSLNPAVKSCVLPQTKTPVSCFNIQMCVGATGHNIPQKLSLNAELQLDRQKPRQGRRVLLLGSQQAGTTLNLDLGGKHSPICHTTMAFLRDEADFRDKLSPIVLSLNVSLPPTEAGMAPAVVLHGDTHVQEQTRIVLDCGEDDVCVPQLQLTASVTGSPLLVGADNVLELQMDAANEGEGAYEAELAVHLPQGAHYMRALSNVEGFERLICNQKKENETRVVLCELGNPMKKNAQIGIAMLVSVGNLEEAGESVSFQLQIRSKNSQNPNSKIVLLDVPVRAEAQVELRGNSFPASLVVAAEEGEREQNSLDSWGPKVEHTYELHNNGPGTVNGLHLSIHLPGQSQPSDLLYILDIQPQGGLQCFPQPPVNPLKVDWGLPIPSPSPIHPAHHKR
Chain of GP IIb/IIIa (P08514 891-1039 partner limits assumed): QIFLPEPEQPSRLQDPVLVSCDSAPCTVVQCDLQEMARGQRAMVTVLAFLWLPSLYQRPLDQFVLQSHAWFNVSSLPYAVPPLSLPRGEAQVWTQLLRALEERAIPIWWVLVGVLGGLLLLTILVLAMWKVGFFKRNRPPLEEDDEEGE
Chain of GP IIb/IIIa (P05106 27-788): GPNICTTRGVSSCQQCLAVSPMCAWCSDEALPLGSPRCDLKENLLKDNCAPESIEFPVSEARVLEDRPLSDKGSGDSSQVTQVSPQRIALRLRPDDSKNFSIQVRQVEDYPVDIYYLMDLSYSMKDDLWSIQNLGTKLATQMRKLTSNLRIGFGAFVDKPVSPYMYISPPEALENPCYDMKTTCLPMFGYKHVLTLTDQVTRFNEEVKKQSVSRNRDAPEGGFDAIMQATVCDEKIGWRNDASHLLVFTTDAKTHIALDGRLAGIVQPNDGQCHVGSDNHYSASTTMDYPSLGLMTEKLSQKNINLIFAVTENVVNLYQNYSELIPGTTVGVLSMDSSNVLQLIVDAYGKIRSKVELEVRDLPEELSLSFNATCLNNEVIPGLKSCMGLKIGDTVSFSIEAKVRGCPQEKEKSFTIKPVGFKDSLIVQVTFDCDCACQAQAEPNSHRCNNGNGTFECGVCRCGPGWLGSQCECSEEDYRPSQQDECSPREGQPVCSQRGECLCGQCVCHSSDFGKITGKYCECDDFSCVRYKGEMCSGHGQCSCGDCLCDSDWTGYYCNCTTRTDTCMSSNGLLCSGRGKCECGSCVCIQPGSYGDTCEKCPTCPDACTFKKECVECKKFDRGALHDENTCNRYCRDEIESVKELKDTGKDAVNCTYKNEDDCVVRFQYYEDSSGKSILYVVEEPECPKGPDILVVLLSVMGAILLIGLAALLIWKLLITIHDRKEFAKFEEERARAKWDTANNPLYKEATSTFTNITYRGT

canine platelets = test: Canine platelet aggregation in vitro (ADP, arachidonic acid, collagen); type: cell-based, dog; details: stimulated by 10 μm ADP, […] arachidonic acid or 9.6 micrograms/ml collagen; read-out: IC50 against canine platelet aggregation
platelets [2] = test: Ex vivo platelet aggregation in the canine coronary thrombosis study; details: dog
Description: For all ex vivo studies (see FIGS. 3A, 3B1, 3B2, 3B3, 3C1 and 3C2), control aggregation values were standardized to the percentages of light transmission observed in PRP and PPP samples (0% and 100%, respectively).
(§1) Animals were randomly assigned to two treatment groups: vehicle control (i.e., normal saline) or RGD peptides at various concentrations. Peptides were administered intra-atrially in both bolus and continuous injections. Each bolus injection consisted of 0.5 to 10 mg/kg and was administered 15 minutes before application of the current. A continuous infusion of the same peptide was then started immediately after completion of this initial injection. Animals received a 25 μg/kg/min to 200 μg/kg/min infusion. The anti-thrombotic effects of the peptides were monitored until 30 minutes after the occurrence of a persistent, occlusive thrombus or five hours after the initiation of electrical stimulation (whichever resulted first). If an occlusive thrombus had not developed within four hours after the initiation of current, the peptide infusion was stopped.
Platelet counts and ex vivo aggregation studies were performed one hour before and 1, 3, and 5 hours after application of anodal direct current.
Platelet aggregation was also determined ex vivo at one, three, and five hours after current application. For these studies, arachidonic acid, or collagen was again used to stimulate the platelets.

coronary thrombosis = test: Electrically induced canine coronary thrombosis, time to full occlusion; type: in vivo; details: dog
Description: Male mongrel dogs weighing 14 to 20 kg were selected based on proper aggregation of their platelets in response to arachidonic acid, collagen, and adenosine disphosphate (ADP) and based on similar weights and hemodynamic properties.
Before surgery, the animals were anesthetized with sodium pentobarbital (30 mg/kg, i.v.) and then intubated and ventilated on room air with positive pressure using a respirator (Harvard Apparatus, S. Natick, Mass.) at a volume of 30 ml/kg and a frequency of 12 breaths/min. Surgery, performed under aseptic conditions, was begun with the placement of cannulae into the left carotid artery and jugular vein for monitoring arterial blood pressure (Statham P23 pressure transducer, Gould, Inc., Cardiovascular Products, Oxnard, CA) and administering intravenous fluids.
The heart was exposed via a left thoracotomy through the 5th intercostal space. A 2-cm segment of the left circumflex coronary artery (LCCA) was isolated from surrounding tissue by blunt dissection. […] The intra-coronary electrode was constructed by attaching a 25-gauge hypodermic needle tip to a 30-gauge Teflon-insulated silver-coated copper wire. The mechanical occluder was constructed of stainless steel in a C shape with a Teflon screw (2 mm diameter) on top. It was adjusted to control vessel circumference and decrease the reactive hyperemic flow due to a 10-sec (full) occlusion by 50-70% without affecting basal coronary blood flow (FIG. 1C). A monopolar epicardial electrode was sutured to the surface of the ventricle in the region of LCCA distribution to monitor ischemic changes in the electrocardiogram (ECG). The left atrium was cannulated with polythylene tubing for administration of the peptide. Continuous recordings of blood pressure, limb lead II ECG, epicardial electrogram, and mean and phasic LCCA blood flow were obtained on a Model 7 polygraph (Grass Instrument Co., Quincy, Mass.).
One hour after the completion of surgery, a 100 micro-amp continuous anodal direct current delivered from a 9 volt nickel-cadmium battery was applied to the intimal surface of the LCCA. The anode of the battery was in series with a 250,000 ohm potentiometer and the intraluminal coronary artery electrode. The electric circuit was completed by placing the cathode in a subcutaneous site. Electrical stimulation was applied for three hours. At the conclusion of each experiment, the heart was fibrillated electrically and quickly removed, and the LCCA was dissected free as far as possible to verify the position of the implanted anodal electrode.
as §1
Coronary thrombosis was quantified as the time to full occlusion. The effects of the various peptide treatments on coronary thrombosis is illustrated in FIG. 4.

[3] = test system: Gore-tex vascular graft thrombosis; test: Platelet and fibrinogen uptake by Gore-Tex grafts, baboon ex vivo shunt; type: in vivo
Description: Adult male baboons (weighing 16 to 25 kg) were used in these studies. These were sedated with ketamine hydrochloride (200 to 250 mg intramuscular injection) and maintained under anesthesia with sodium pentobarbital (50 to 75 mg administered intravenously as necessary).
Twenty-four hours before the ex vivo shunt was established, platelets were isolated from 500 ml of blood from the test animal and labelled with ca. 500 microcuries of indium-111 oxine (Medi+Physics, Emeryville, Calif.), which irreversibly and specifically binds to platelets with an efficiency of 50%. Immediately after labelling, these platelets were then injected back into the animal and allowed to circulate for 24 hours. Immediately before the start of the study, fibrinogen that had been isolated from the animal and labelled with iodine-131 (DuPont Nuclear, Boston, Mass.) was also injected back into the animal. Also at this time, baseline determinations of the clotting and template bleeding times were made, and blood samples were drawn for hematology studies.
To establish the ex vivo shunt, the femoral artery and vein were percutaneously cannulated with introducer catheters (KMA Inc., Mansfield, Mass.). The catheters were then connected to medical-grade, heparin-coatedsilastic tubing (2.59 mm internal diameter, (Extracorporeal Medical Specialties, Inc., King of Prussia, Pa.). […] Finally, a 5 cm-long test segment of a 4 mm (internal diameter) vascular graft was inserted at the apex of the circuit. The graft used in these studies was Gore-tex (expanded polytetrafluoroethylene, (W. L. Gore and Associates, Inc., Flagstaff, Az). An electromagnetic flow probe was then inserted into the tubing circuit to measure blood flow, which was maintained at 100 ml/min. by varying the resistance imported by a partially occluding screw clamp that was distal to the probe. Finally, a 5 cm-long test segment of a 4 mm (internal diameter) vascular graft was inserted at the apex of the circuit. The graft used in these studies was Gore-tex (expanded polytetrafluoroethylene, W. L. Gore and Associates, Inc., Flagstaff, Ariz.).
Platelet deposition onto the grafts was monitored by dynamic scanning with a gamma camera (Sigma 400, Ohio Nuclear, Inc., Sohon, Ohio), which detects the gamma radiation emitted by the ^111 indium-labelled platelets. Once the circuit was in place, the animal was placed under this camera, and blood flow was initiated. Scans were then taken at the rate of one frame per two minutes for two hours. The data from these scans were collected on a dedicated Digital MDA computer (Maynard, Mass.). […]

platelets [4] = test: Platelet aggregation on PRP of the peptide-treated baboon; type: in vivo; details: baboon animal 2, ADP 10 μm, 0, 1 and 2 hours
Description: At one- and two-hour time points, template bleeding times were measured, and blood samples were drawn to assess the hematology aggregation studies. Platelet aggregation studies were performed as described in Example V using ADP as the stimulus.
In addition, platelet aggregation studies were conducted on PRP derived from the second animal. Whole blood was drawn at three time points (0, 1 and 2 hours) of both control and experimental shunts.

human platelets = test: Human platelet aggregation, modified assay (Table II); type: cell-based; details: human PRP, citrate; aggregating agent collagen, U46619 or ADP
Description: In an independent study, a slightly modified aggregation assay was used. Platelet aggregation assays were performed in human platelet rich plasma (PRP). […] The blood was centrifuged at 160×g for 10 minutes at 22° C. and allowed to stand for 5 minutes after which the PRP was decanted. Platelet poor plasma (PPP) was isolated from the remaining blood after centrifugation at 2000×g for 25 minutes. The platelet count of the PRP was diluted to about 300,000 platelets per microliter with PPP.
A 225 μl aliquot of PRP plus 25 μl of either a dilution of the test inhibitor sample or a control (PBS) was incubated for 5 minutes in a Chrono-log Whole Blood Aggregometer at 37° C. An aggregating agent (collagen, 1 μg/ml; U46619, 100 ng/ml; or ADP, 17μM) was added and the transmission was recorded.

[5] = Peripheral blood flow (PBF), laser dopler flow probe, rabbit ear; type: in vivo; details: time 10 min, bolus dose as listed per peptide
Description: Unanesthetized male New Zealand White rabbits (2.5-3.5 kg) were placed in a standard rabbit restrainer. Ears were shaved and a 20G teflon catheter with flowswitch (Viggo) was placed in the medial artery, flushed with saline and locked with 1 ml of heparinized saline ([…]). A 22G catheter (Abbott) fitted with an injection cap (Medex) was placed in the marginal vein of the same ear. Saline or a GP IIb IIIa receptor antagonist, at a concentration of 1 to 3 mg/ml, was infused via the venous catheter. At time 0, 41% of the dose was given as a bolus over 2 minutes. The remainder was continuously infused over the following 60 minutes. Blood samples (3.2 ml) were collected into syringes without needles via the arterial catheter at -10, -5, 10, 45 and 60 minutes. […] The sample was divided into 1.5 ml aliquots and centrifuged at room temperature for 5 seconds at 12,000 G. The resulting platelet rich plasma (PRP) is used to measure ex-vivo platelet aggregation (XPA). […]
In an alternative series of experiments, (Table 2) PBF was measured quantitatively with a laser dopler flow probe (Perimed). The probe was positioned securely over the vascular bed of one ear and flow monitored continuously. Each inhibitor was infused and CBT measured in the opposing ear. No arterial catheter was placed for blood sampling, consequently XPA […] in these animals. […]

platelets [6] = test: Thrombin-stimulated platelet aggregation (Table I); details: read-out: Thrombin Stimulated Aggregation; thrombin 2 U/ml, gel-filtered platelets, 37° C.
Description: (§2) Briefly, the change in light transmission was measured through a stirred suspension of platelets in an aggregometer (Model 400 VS, Chrono-Log, Hayertown, Pa., USA). […] In studies using thrombin, the PRP was gel-filtered on Sepharose 2B in divalent ion-free Tyrode's solution containing 2% BSA. For all studies, the reference standard was platelet-poor plasma, which was obtained by centrifuging PRP at 1000×g for 5 min.
(§3) All aggregation studies were performed at 37° C. with a constantly stirred suspension of 3×10^8 platelets/ml. (Platelet count was determined with the aid of a hemacytometer.) Peptides and stimulants were added to these suspensions in 1% dilutions. The PRP and gel-filtered platelets were used within three hours from the time of blood collection.
(§4) Peptide anti-aggregation potencies were determined from dose-responsive curves for the inhibition of the maximum aggregation responses stimulated by physiologic doses of ADP (10 μm) and thrombin (2 U/ml).

platelets [7] = test: ADP-stimulated platelet aggregation in platelet-rich plasma (Table I); details: read-out: ADP-Stimulated Aggregation; ADP 10 μm, citrated platelet-rich plasma, 37° C.; * concentrations unconfirmed by amino acid composition analysis
Description: as §2, §3, §4

[8] = baboon animal 1, two bolus IV injections of 10 mg/kg
[9] = baboon animal 2, 10 mg/kg bolus IV then 10 mg/kg/hr infusion for two hours

## Ac-CNPRGD(O-Me-Y)RCNH2 [Peptide 8X]
Platelets [1]
  ex vivo platelet aggregation inhibited: > 95%
GP IIb/IIIa
  differential inhibition of ligand binding to GP IIb/IIIa: inhibits the binding of fibrinogen to GP IIb/IIIa more than it inhibits the binding of fibronectin and vitronectin to the same integrin

## G(Pen)GHRGDLRCA [Peptide 2G]
Canine platelets
  IC50: 15000 to 30000 nM
Platelets [2]; 10 mg/kg injected, 1, 3 and 5 h
  ex vivo ADP-stimulated aggregation: substantially inhibited
Coronary thrombosis; 10 mg/kg
  coronary thrombosis, time to full occlusion: did not significantly influence this frequency
[3]; [8]
  reduction in 111In-platelet uptake by graft: 90%
  reduction in 131I-fibrinogen uptake by graft: 79%
[3]; [9]
  reduction in labelled fibrinogen uptake by graft: 78%
  reduction in labelled platelet uptake by graft: 84%
Platelets [4]
  platelet aggregation in PRP: completely unresponsive

## R(Pen)GHRGDWRCR [Peptide 4Q]
Human platelets
  IC50: 3.3 µM
Canine platelets
  IC50: 1500 to 5000 nM
Platelets [2]; 5 mg/kg injection
  ex vivo platelet activation by collagen: near-maximal inhibition
Platelets [2]; 5 mg/kg injection, all three time points
  ex vivo platelet response to ADP and AA: completely unresponsive
Platelets [2]; 10 mg/kg injection
  ex vivo platelet aggregation by ADP, AA and collagen: prevented platelet aggregation by all three stimuli at one- and three-hour time points
Platelets [2]; 10 mg/kg, five-hour point
  ex vivo platelet responsiveness: platelet responsiveness was slightly improved
Coronary thrombosis; 5 mg/kg
  coronary thrombosis, time to full occlusion: significantly prolonged the time to occlusion
Coronary thrombosis; 5 mg/kg, circulating platelet levels one-third of normal
  thrombus formation: able to prevent thrombus formation
Coronary thrombosis; 10 mg/kg
  coronary thrombosis, time to full occlusion: completely prevented occlusion for the full five-hour experimental period
[5]
  PBF (units): 9 units
Platelets [6]
  IC50: 1200 nM
Platelets [7]
  IC50: 1300 nM

From patent US5672585A, “Method and composition for treating thrombosis” (priority 1995, dated 1997)
